Reference: patent publication US12637454B2, “Heterocyclic monoacylglycerol lipase (MAGL) inhibitors” (Hoffmann-La Roche Inc., priority 2019, dated 2026)

These compounds were tested against T1, MAGL (Homo sapiens, UniProt Q99685) (assay: 2-AG assay (MAGL inhibitory activity, hydrolysis of 2-arachidonoylglycerol followed by mass spectrometry)). Conditions: 50 pM MAGL, 8 μM 2-arachidonoylglycerol, 15 min preincubation, 30 min incubation at RT.
T1 sequence (Q99685 1-303): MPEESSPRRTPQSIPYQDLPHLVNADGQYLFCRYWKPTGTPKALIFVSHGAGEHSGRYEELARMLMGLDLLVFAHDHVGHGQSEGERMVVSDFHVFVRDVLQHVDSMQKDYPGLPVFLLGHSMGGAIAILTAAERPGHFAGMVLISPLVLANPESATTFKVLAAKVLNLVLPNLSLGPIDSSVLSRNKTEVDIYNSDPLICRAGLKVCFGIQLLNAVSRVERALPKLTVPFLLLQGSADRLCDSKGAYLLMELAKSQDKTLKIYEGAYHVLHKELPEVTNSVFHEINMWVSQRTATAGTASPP
Format: biochemical
Procedure: Compounds were profiled for MAGL inhibitory activity by determining the enzymatic activity by following the hydrolysis of the natural substrate 2-arachidonoylglycerol (2-AG) resulting in arachidonic acid, which can be followed by mass spectrometry. This assay is hereinafter abbreviated “2-AG assay”.
The 2-AG assay was carried out in 384 well assay plates (PP, Greiner Cat #784201) in a total volume of 20 μL. Compound dilutions were made in 100% DMSO (VWR Chemicals 23500.297) in a polypropylene plate in 3-fold dilution steps to give a final concentration range in the assay from 12.5 μM to 0.8 pM. 0.25 μL compound dilutions (100% DMSO) were added to 9 μL MAGL in assay buffer (50 mM TRIS (GIBCO, 15567-027), 1 mM EDTA (Fluka, 03690-100 mL), 0.01% (v/v) Tween. After shaking, the plate was incubated for 15 min at RT. To start the reaction, 10 μL 2-arachidonoylglycerol in assay buffer was added. The final concentrations in the assay was 50 pM MAGL and 8 μM 2-arachidonoylglyerol. After shaking and 30 min incubation at RT, the reaction was quenched by the addition of […] of ACN containing 4 μM of d8-arachidonic acid. The amount of arachidonic acid was traced by an online SPE system (Agilent Rapidfire) coupled to a triple quadrupole mass spectrometer (Agilent 6460). A C18 SPE cartridge (G9205A) was used in an ACN/water liquid setup. The mass spectrometer was operated in negative electrospray mode following the mass transitions 303.1→259.1 for arachidonic acid and 311.1→267.0 for d8-arachidonic acid. The activity of the compounds was calculated based on the ratio of intensities [arachidonic acid/d8-arachidonic acid].

IC50 [nM] | Compound
626 | COc1cccc(C(=O)N2CCN3C[C@@](O)(CC(C)C)CC[C@@H]3C2)c1Cl (racemic) [Example 24, (2-Chloro-3-methoxyphenyl)-[rac-(7R,9aS)-7-hydroxy-7-(2-methylpropyl)-3,4,6,8,9,9a-hexahydro-1H-pyrido[1,2-a]pyrazin-2-yl]methanone]
548 | COc1cccc(C(=O)N2CCN3C[C@@](O)(C4CCCC4)CC[C@@H]3C2)c1Cl (racemic) [Example 25, (2-chloro-3-methoxyphenyl)-[rac-(7R,9aS)-7-cyclopentyl-7-hydroxy-3,4,6,8,9,9a-hexahydro-1H-pyrido[1,2-a]pyrazin-2-yl]methanone]
678 | COc1cccc(C(=O)N2CCN3C[C@@](O)(C(F)(F)F)CC[C@@H]3C2)c1Cl (racemic) [Example 26, (2-Chloro-3-methoxyphenyl)-[rac-(7R,9aR)-7-hydroxy-7-(trifluoromethyl)-3,4,6,8,9,9a-hexahydro-1H-pyrido[1,2-a]pyrazin-2-yl]methanone]
72.4 | CC1(O)CCN(c2cccc(C(=O)N3CCN4C[C@@](O)(c5ccc(Cl)cc5)CC[C@@H]4C3)c2Cl)C1 (mixture of isomers) [Example 50, [2-chloro-3-(3-hydroxy-3-methylpyrrolidin-1-yl)phenyl]-[rac-(7R,9aS)-7-(4-chlorophenyl)-7-hydroxy-3,4,6,8,9,9a-hexahydro-1H-pyrido[1,2-a]pyrazin-2-yl]methanone]
278 | COc1cccc(C(=O)N2CCN3CC(O)(c4ccc(C(F)(F)F)nc4)CCC3C2)c1Cl (racemic) [Example 71, (2-chloro-3-methoxyphenyl)-[rac-(7R,9aR)-7-hydroxy-7-[6-(trifluoromethyl)pyridin-3-yl]-3,4,6,8,9,9a-hexahydro-1H-pyrido[1,2-a]pyrazin-2-yl]methanone]
3490 | COc1cccc(C(=O)N2CCN3CC(O)(c4ccc(C(F)(F)F)nc4)CCC3C2)c1Cl (racemic) [Example 72, (2-chloro-3-methoxyphenyl)-[rac-(7R,9aS)-7-hydroxy-7-[6-(trifluoromethyl)pyridin-3-yl]-3,4,6,8,9,9a-hexahydro-1H-pyrido[1,2-a]pyrazin-2-yl]methanone]
898 | O=C(c1cccc(OC(F)F)c1Cl)N1CCN2C[C@@](O)(c3ccc(C(F)(F)F)cn3)CC[C@@H]2C1 (stereo in doubt) [Example 37, [(7R,9aR)-7-hydroxy-7-[5-(trifluoromethyl)pyridin-2-yl]-3,4,6,8,9,9a-hexahydro-1H-pyrido[1,2-a]pyrazin-2-yl]-[2-chloro-3-(difluoromethoxy)phenyl]methanone]
327 | O=C(c1cccc(OC(F)F)c1Cl)N1CCN2C[C@](O)(c3ccc(C(F)(F)F)cn3)CC[C@H]2C1 (stereo in doubt) [Example 38, [(7S,9aS)-7-hydroxy-7-[5-(trifluoromethyl)pyridin-2-yl]-3,4,6,8,9,9a-hexahydro-1H-pyrido[1,2-a]pyrazin-2-yl]-[2-chloro-3-(difluoromethoxy)phenyl]methanone]
4.48 | COc1cccc(C(=O)N2CCN3C[C@@](O)(c4ccc(F)c(Cl)c4)CC[C@@H]3C2)c1Cl [Example 1, [(7S,9aR)-7-(3-Chloro-4-fluorophenyl)-7-hydroxy-3,4,6,8,9,9a-hexahydro-1H-pyrido[1,2-a]pyrazin-2-yl]-(2-chloro-3-methoxyphenyl)methanone]
18.8 | COc1cccc(C(=O)N2CCN3C[C@](O)(c4ccc(F)c(Cl)c4)CC[C@H]3C2)c1Cl [Example 2, [(7R,9aS)-7-(3-chloro-4-fluorophenyl)-7-hydroxy-3,4,6,8,9,9a-hexahydro-1H-pyrido[1,2-a]pyrazin-2-yl]-(2-chloro-3-methoxyphenyl)methanone]
4.31 | O=C(c1cccc(-c2ccn[nH]2)c1Cl)N1CCN2C[C@@](O)(c3ccc(Cl)cc3)CC[C@@H]2C1 [Example 3, [(7S,9aR)-7-(4-chlorophenyl)-7-hydroxy-3,4,6,8,9,9a-hexahydro-1H-pyrido[1,2-a]pyrazin-2-yl]-[2-chloro-3-(1H-pyrazol-5-yl)phenyl]methanone]
76.3 | O=C(c1cccc(-c2ccn[nH]2)c1Cl)N1CCN2C[C@](O)(c3ccc(Cl)cc3)CC[C@H]2C1 [Example 4, [(7R,9aS)-7-(4-chlorophenyl)-7-hydroxy-3,4,6,8,9,9a-hexahydro-1H-pyrido[1,2-a]pyrazin-2-yl]-[2-chloro-3-(1H-pyrazol-5-yl)phenyl]methanone]
1.95 | O=C(c1cccc(-c2c[nH]nc2F)c1Cl)N1CCN2C[C@@](O)(c3ccc(Cl)cc3)CC[C@@H]2C1 [Example 5, [(7S,9aR)-7-(4-chlorophenyl)-7-hydroxy-3,4,6,8,9,9a-hexahydro-1H-pyrido[1,2-a]pyrazin-2-yl]-[2-chloro-3-(3-fluoro-1H-pyrazol-4-yl)phenyl]methanone]
17.2 | O=C(c1cccc(-c2c[nH]nc2F)c1Cl)N1CCN2C[C@](O)(c3ccc(Cl)cc3)CC[C@H]2C1 [Example 6, [(7R,9aS)-7-(4-chloropheny1)-7-hydroxy-3,4,6,8,9,9a-hexahydro-1H-pyrido[1,2-a]pyrazin-2-yl]-[2-chloro-3-(3-fluoro-1H-pyrazol-4-yl)phenyl]methanone]
398 | COc1ccc(C(=O)N2CCN3C[C@@](O)(c4ccc(Cl)cc4)CC[C@@H]3C2)c(Cl)n1 [Example 7, [(7S,9aR)-7-(4-chlorophenyl)-7-hydroxy-3,4,6,8,9,9a-hexahydro-1H-pyrido[1,2-a]pyrazin-2-yl]-(2-chloro-6-methoxypyridin-3-yl)methanone]
2960 | Cc1nc(N)ccc1C(=O)N1CCN2C[C@@](O)(c3ccc(Cl)cc3)CC[C@@H]2C1 [Example 8, [(7S,9aR)-7-(4-chlorophenyl)-7-hydroxy-3,4,6,8,9,9a-hexahydro-1H-pyrido[1,2-a]pyrazin-2-yl]-(6-amino-2-methylpyridin-3-yl)methanone]
16.2 | O=C(c1cccc(N2CC(O)C2)c1Cl)N1CCN2C[C@@](O)(c3ccc(Cl)cc3)CC[C@@H]2C1 [Example 9, [(7S,9aR)-7-(4-chlorophenyl)-7-hydroxy-3,4,6,8,9,9a-hexahydro-1H-pyrido[1,2-a]pyrazin-2-yl]-[2-chloro-3-(3-hydroxyazetidin-1-yl)phenyl]methanone]
58.2 | O=C(c1cccc(N2CC(O)C2)c1F)N1CCN2C[C@@](O)(c3ccc(Cl)cc3)CC[C@@H]2C1 [Example 10]
775 | Cn1c(Cl)c(C(=O)N2CCN3C[C@](O)(c4ccc(Cl)cc4)CC[C@H]3C2)ccc1=O [Example 11, 5-[(7R,9aS)-7-(4-chlorophenyl)-7-hydroxy-3,4,6,8,9,9a-hexahydro-1H-pyrido[1,2-a]pyrazine-2-carbonyl]-6-chloro-l-methylpyridin-2-one]
4460 | Cn1c(Cl)c(C(=O)N2CCN3C[C@@](O)(c4ccc(Cl)cc4)CC[C@@H]3C2)ccc1=O [Example 12, 5-[(7S,9aR)-7-(4-chlorophenyl)-7-hydroxy-3,4,6,8,9,9a-hexahydro-1H-pyrido[1,2-a]pyrazine-2-carbonyl]-6-chloro-l-methylpyridin-2-one]
1190 | O=C(c1cccc(N2CCOC2=O)c1Cl)N1CCN2C[C@@](O)(c3ccc(Cl)cc3)CC[C@@H]2C1 [Example 13, 3-[3-[(7S,9aR)-7-(4-chlorophenyl)-7-hydroxy-3,4,6,8,9,9a-hexahydro-1H-pyrido[1,2-a]pyrazine-2-carbonyl]-2-chlorophenyl]-1,3-oxazolidin-2-one]
2160 | O=C(c1cccc(N2CCNC2=O)c1Cl)N1CCN2C[C@@](O)(c3ccc(Cl)cc3)CC[C@@H]2C1 [Example 14, 1-[3-[(7S,9aR)-7-(4-chlorophenyl)-7-hydroxy-3,4,6,8,9,9a-hexahydro-1H-pyrido[1,2-a]pyrazine-2-carbonyl]-2-chlorophenyl]imidazolidin-2-one]
168 | Cc1c[nH]nc1-c1cccc(C(=O)N2CCN3C[C@@](O)(c4ccc(Cl)cc4)CC[C@@H]3C2)c1F [Example 15, [(7S,9aR)-7-(4-chlorophenyl)-7-hydroxy-3,4,6,8,9,9a-hexahydro-1H-pyrido[1,2-a]pyrazin-2-yl]-[2-fluoro-3-(4-methl1-1H-pyrazol-3-yl)phenyl]methanone]

Compound | IC50 [nM]
4-[(E)-2-[3-[(7R,9aR)-7-(4-Chlorophenyl)-1,3,4,6,7,8,9,9a-octahydropyrido[1,2-a]pyrazine-2-carbonyl]-2-bromo-phenyl]vinyl]-N-methyl-benzamide and 3-[(E)-2-[4-[(7R,9aR)-7-(4-chlorophenyl)-1,3,4,6,7,8,9,9a-octahydropyrido[1,2-a]pyrazine-2-carbonyl]phenyl]vinyl]-2-bromo-N-methyl-benzamide [Example 31] | 3.72
